In patent publication US20090018131A1, “QUINAZOLINE DERIVATIVES AS P13 KINASE INHIBITORS” (priority 2007, published 2009):

Target: T1, PI3Kα (Homo sapiens, UniProt P42336)
T1 construct: His
Assay: PI3K Alpha Leadseeker SPA Assay
Assay type: biochemical
Conditions: in at least one experimental run; read-out: IC50 value against PI3Kα
Protocol: Compounds of the present invention were tested according to the following assays and found as inhibitors of PI3 kinases, particularly PI3Kα. The exemplified compounds were tested and found active against PI3Kα. The IC50's ranged from about 1 nM to 10 μM.
SPA imaging beads are microspheres containing scintillant which emit light in the red region of the visible spectrum. As a result, these beads are ideally suited to use with a CCD imager such as the Viewlux. The Leadseeker beads used in this system are polystyrene beads that have been coupled with polyethyleneimine. When added to the assay mixture, the beads absorb both the substrate (PIP2) and product (PIP3). Adsorbed P^33—PIP3 will cause an increase in signal, measured as ADUs (analog to digital units). This protocol details the use of the PEI-PS Leadseeker beads for assays using His-p110/p85 PI3K alpha.
Solid compounds are typically plated with 0.1 μl of 100% DMSO in all wells (except column 6 and 18) of a 384-well, flat bottom, low volume plate (Greiner 784075). The compounds are serially diluted (3-fold in 100% DMSO) across the plate from column 1 to column 12 and column 13 to column 24 and leave column 6 and 18 containing only DMSO to yield 11 concentrations for each test compound.
The assay buffer contains MOPS (pH 6.5), CHAPS, and DTT. PI3K alpha and PIP2 (L-alpha-D-myo-Phosphatidylinositol 4,5-bisphosphate [PI(4,5)P2]3-O-phospho linked, D(+)-sn-1,2-di-O-octanoylglyceryl, CellSignals # 901) are mixed and incubated in the plate with compound for 30 min prior to starting the reaction with the addition of P^33-ATP and MgCl2 (reagents added using Zoom). Enzyme-free wells (column 18) are typically done to determine the low control. PEI-PS Leadseeker beads in PBS/EDTA/CHAPS are added (by Multidrop) to quench the reaction, and the plates are allowed to incubate for at least one hour (typically overnight) before centrifugation. The signal is determined using a Viewlux detector and is then imported into curve fitting software (Activity Base) for construction of concentration response curves. The percent inhibition of activity was calculated relative to high controls (C1, 0.1 μl DMSO in column 6, rows A-P)) and low controls (C2, 5 μl of 40 uM PIP2 in buffer in column 18, rows A-P) using, 100*(1-(U1-C2)/(C1-C2)). The concentration of test compound yielding 50% inhibition was determined using the equation, y=((Vmax*x)/(K+x))+Y2, where “K” was equal to the IC50. The IC50 values were converted to pIC50 values, i.e., −log IC50 in Molar concentration.

T1 sequence (P42336 whole entry, species assumed): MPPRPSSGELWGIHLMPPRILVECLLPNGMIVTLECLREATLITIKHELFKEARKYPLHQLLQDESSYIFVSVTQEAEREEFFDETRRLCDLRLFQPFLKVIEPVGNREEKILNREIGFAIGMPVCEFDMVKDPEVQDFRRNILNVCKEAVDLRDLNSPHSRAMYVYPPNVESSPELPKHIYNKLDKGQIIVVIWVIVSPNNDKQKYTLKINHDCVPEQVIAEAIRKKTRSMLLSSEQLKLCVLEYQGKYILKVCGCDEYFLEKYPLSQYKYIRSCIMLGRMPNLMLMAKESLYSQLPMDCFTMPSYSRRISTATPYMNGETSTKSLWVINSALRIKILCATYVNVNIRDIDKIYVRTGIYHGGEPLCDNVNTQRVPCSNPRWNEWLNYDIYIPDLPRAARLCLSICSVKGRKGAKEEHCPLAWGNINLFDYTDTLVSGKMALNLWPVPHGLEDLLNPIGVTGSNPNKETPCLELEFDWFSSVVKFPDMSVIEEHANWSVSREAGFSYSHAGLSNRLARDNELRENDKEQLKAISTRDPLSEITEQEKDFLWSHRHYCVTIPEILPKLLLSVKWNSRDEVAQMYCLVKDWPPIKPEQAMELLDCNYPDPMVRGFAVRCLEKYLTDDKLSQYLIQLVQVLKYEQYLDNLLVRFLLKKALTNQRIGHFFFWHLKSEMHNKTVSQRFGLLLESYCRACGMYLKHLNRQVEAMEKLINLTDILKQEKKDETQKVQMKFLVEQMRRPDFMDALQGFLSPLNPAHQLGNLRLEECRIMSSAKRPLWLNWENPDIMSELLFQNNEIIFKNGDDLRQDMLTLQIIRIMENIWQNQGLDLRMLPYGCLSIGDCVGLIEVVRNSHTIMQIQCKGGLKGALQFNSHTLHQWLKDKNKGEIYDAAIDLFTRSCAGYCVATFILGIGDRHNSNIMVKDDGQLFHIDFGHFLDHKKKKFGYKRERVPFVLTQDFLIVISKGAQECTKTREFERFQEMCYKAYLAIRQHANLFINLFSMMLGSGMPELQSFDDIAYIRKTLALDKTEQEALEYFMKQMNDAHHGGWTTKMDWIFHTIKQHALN
T1 sequence (P27986 whole entry partner, species assumed): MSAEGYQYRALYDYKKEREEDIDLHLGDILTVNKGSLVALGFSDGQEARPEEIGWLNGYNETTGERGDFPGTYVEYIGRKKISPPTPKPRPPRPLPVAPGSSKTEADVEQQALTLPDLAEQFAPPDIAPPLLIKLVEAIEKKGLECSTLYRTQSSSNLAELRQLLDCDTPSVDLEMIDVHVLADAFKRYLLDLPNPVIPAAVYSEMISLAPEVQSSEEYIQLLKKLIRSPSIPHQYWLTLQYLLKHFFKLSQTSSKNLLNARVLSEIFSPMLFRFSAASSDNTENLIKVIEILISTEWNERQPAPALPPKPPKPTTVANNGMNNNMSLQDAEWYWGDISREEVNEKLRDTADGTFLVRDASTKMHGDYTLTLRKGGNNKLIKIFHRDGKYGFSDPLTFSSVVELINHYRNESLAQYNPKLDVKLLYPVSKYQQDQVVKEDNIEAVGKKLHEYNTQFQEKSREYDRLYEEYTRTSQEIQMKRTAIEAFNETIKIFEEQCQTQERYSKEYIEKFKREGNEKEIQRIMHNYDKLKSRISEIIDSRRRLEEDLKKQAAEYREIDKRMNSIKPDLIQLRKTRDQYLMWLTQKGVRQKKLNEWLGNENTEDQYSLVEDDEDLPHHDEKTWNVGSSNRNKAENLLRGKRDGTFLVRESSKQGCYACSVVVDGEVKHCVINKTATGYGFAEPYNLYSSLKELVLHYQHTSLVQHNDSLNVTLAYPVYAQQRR

Structure (SMILES)	IC50 [nM]
c1nc(N2CCOCC2)c2cc(-c3cnc4[nH]ccc4c3)ccc2n1 [Example 15, 4-(4-morpholinyl)-6-(1H-pyrrolo[2,3-b]pyridin-5-yl)quinazoline]	50
NS(=O)(=O)c1cncc(-c2ccc3ncnc(N4CCCCC4)c3c2)c1 [Example 16, 5-[4-(1-piperidinyl)-6-quinazolinyl]-3-pyridinesulfonamide]	40
CN(C)S(=O)(=O)c1cc(-c2ccc3nc(NCCO)nc(-c4ccncc4)c3c2)cnc1N [Example 1, 2-amino-5-[2-[(2-hydroxyethyl)amino]-4-(4-pyridinyl)-6-quinazolinyl]-N,N-dimethyl-3-pyridinesulfonamide]	7.9
OCc1cccc(Nc2nc(-c3ccncc3)c3cc(-c4cnc5[nH]ccc5c4)ccc3n2)c1 [Example 2, (3-{[4-(4-pyridinyl)-6-(1H-pyrrolo[2,3-b]pyridin-5-yl)-2-quinazolinyl]amino}phenyl)methanol]	100
COc1ccc(Nc2ncnc3ccc(-c4cncc(NS(=O)(=O)c5ccc(F)cc5F)c4)cc23)cc1Cl [Example 73, N-[5-(4-{[3-chloro-4-(methyloxy)phenyl]amino}-6-quinazolinyl)-3-pyridinyl]-2,4-difluorobenzenesulfonamide]	2.5

These reach a lower IC50. Values come first.

IC50 [nM]	Structure (SMILES)
1.4	CC(=O)Nc1nc(-c2ccncc2)c2cc(-c3cnc(Cl)c(NS(=O)(=O)c4ccccc4)c3)ccc2n1 [Example 6, N-[6-{6-chloro-5-[(phenylsulfonyl)amino]-3-pyridinyl}-4-(4-pyridinyl)-2-quinazolinyl]acetamide]
1	CCN1CCN(c2ncnc3ccc(-c4cncc(NS(=O)(=O)c5ccc(F)cc5F)c4)cc23)CC1=O [Example 61, N-{5-[4-(4-ethyl-3-oxo-1-piperazinyl)-6-quinazolinyl]-3-pyridinyl}-2,4-difluorobenzenesulfonamide]
